What was measured:
Assay type in all cases: binding
Aster-A = molecular target: T1, Aster-A (Homo sapiens, UniProt Q96CP6); assay: Fluorescence polarisation (FP) competition with NBD-cholesterol, Aster-A; settings: for inhibition at 10 µM / Aster-A (FP) inhibition: single dose, Dose = 10 µM; for IC50: mean of three experiments run in technical duplicates
T1 construct: Aster-A(359-547); GST (PreScission-cleavable) (N, cleaved yes); made in house; host or cells: E. coli OverExpress C41
T1 sequence (Q96CP6 359-547): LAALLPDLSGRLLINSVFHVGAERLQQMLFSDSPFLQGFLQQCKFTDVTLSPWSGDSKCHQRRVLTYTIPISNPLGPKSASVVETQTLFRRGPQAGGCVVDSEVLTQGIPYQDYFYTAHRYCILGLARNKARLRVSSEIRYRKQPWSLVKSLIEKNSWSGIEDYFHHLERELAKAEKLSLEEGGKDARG
Excerpt: (§1) Protein expression constructs
(§2) Human ASTER domains of Aster-A(359-547), -B(364-552) and -C(318-504) were subcloned into a pGEX-6p-2rbs vector, thus introducing the cloning artifact ‘GPLGS’.3 The pGEX-6P-1-GST-OSBP(377- […]
(§3) a gift from James H. Hurley (University of California).4 The pHIS_2His6_Thrombin_STARD4(2-205;C75S) plasmid was a gift from Young Jun Im (Chonnam National University).5 STARD5A was a gift from Nicola Burgess-Brown (Addgene plasmid #42392; http://n2t.net/addgene:42392; […]
(§4) Protein expression and purification […]
(§5) vectors including an N-terminal PreScission-cleavable glutathione S-transferase (GST)-tag were expressed in Escherichia coli (E. coli) OverExpress C41 in Terrific Broth (TB) medium for 16 h at 18 °C after the induction with 0.1 mM isopropyl β-D-1-thiogalactopyranoside (IPTG). Cells were harvested at 3500 × g for 15 minutes and lysed by sonication in buffer containing 50 mM HEPES pH 7.5, 300 mM NaCl, 10 %v/v glycerol, 5 mM dithiothreitol (DTT), 0.1 %v/v Triton X-100 and protease inhibitor mix HP plus (Serva). The lysate was purified by affinity chromatography on a GSTrap FF column (Cytiva) using an ÄKTA Start (Cytiva) in buffer containing 50 mM HEPES pH 7.5, 300 mM NaCl, 10 %v/v glycerol, 5 mM DTT and 0.01 %v/v Triton X-100. The GST-tag was cleaved overnight on the column at 4 °C. The Aster sterol binding domains were further purified by size-exclusion chromatography (SEC) on a HiLoad 16/600 Superdex 75 pg (Cytiva) in buffer containing 20 mM HEPES pH 7.5, 300 mM NaCl, 10 %v/v […]
(§6) STARD5(6-213) harboring an N-terminal His6-Tag were expressed in E. coli BL21(DE3) in Luria-Bertani Broth (LB) medium for approximately 16 h at 18 °C after induction with 0.15 mM IPTG. Cells were harvested at 3500 × g for 15 minutes and lysed by sonication in buffer containing 50 mM HEPES pH 7.5, 150 mM NaCl, 5 %v/v glycerol, 5 mM DTT, 0.1 %v/v Triton X -100 and ethylenediaminetetraacetic acid (EDTA)-free protease inhibitor cocktail (Sigma-Aldrich). The cleared lysate was purified by affinity chromatography on a Ni-NTA Superflow Cartridge (Qiagen) using an ÄKTA Start (Cytiva) in buffer containing 50 mM HEPES pH 7.5, 150 mM NaCl, 5 %v/v glycerol, 5 mM DTT. START domains were eluted by using elution buffer containing 50 mM HEPES pH 7.5, 150 mM NaCl, 5 %v/v glycerol, 5 mM DTT and 500 mM imidazole. Proteins were further purified by SEC on a HiLoad 16/600 Superdex 75 pg (Cytiva) in buffer containing 20 mM HEPES pH 7.5, 150 mM NaCl, 5 %v/v glycerol and 2 mM DTT.
(§7) The ORP domain of human OSBP(377-807) in the pGEX-6p-1 vector with an N-terminal PreScission-cleavable GST-tag was expressed in E. coli OverExpress C41 in LB medium for 16 h at 18 °C after induction with 0.1 mM IPTG. Cells were harvested at 3500 × g for 15 minutes and lysed by sonication in buffer containing 20 mM HEPES pH 7.5, 300 mM NaCl, 10 %v/v glycerol, 5 mM DTT, 0.1 %v/v Triton X-100 and EDTA-free protease inhibitor cocktail (Sigma-Aldrich). The cleared lysate was purified by affinity chromatography on a GSTrap HF column (Cytiva) using an ÄKTA Start (Cytiva) in buffer containing 20 mM HEPES pH 7.5, 300 mM NaCl, 10 %v/v glycerol, 5 mM DTT. OSBP(377 -807) was eluted by using elution buffer containing 20 mM HEPES pH 7.5, 300 mM NaCl, 10 %v/v glycerol, 5 mM DTT and 10 mM reduced glutathione. Proteins were further purified by SEC on a HiLoad 16/600 Superdex 75 pg (Cytiva) using an ÄKTA Explorer (Cytiva) in buffer containing 20 mM HEPES pH 7.5, 150 mM NaCl, 10 %v/v glycerol and 2 mM DTT.
(§8) The ORP domains of human ORP1(534-950) in pET24b(+) and ORP2(49-480) in the pET24b(+) vector including an N-terminal His6-Tag were expressed in E. coli BL21(DE3) in TB medium for approximately 16 h at 18 °C after induction with 0.1 mM IPTG. Cells were collected at 3500 × g for 15 minutes and lysed by sonification in buffer containing 10 mM Tris-HCl pH 8, 300 mM NaCl, 5 % glycerol, 2 mM DTT, 0.1 % Triton X-100 and EDTA-free protease inhibitor cocktail (Sigma-Aldrich). The cleared […]

STARD4 = molecular target: T2, STARD4 (Homo sapiens, UniProt Q96DR4, C75S); assay: Differential scanning fluorimetry (DSF), STARD4; settings: for ΔTm at 10 µM / STARD4 (DSF) ΔTm: single dose, Dose = 10 µM; for Kd: apparent Kd, mean of three experiments run in technical duplicates, read-out: STARD4 Kd,app (DSF); for STARD4 (DSF) ΔTmmax: maximal thermal shift
T2 construct: STARD4(2-205; C75S); made in house; host or cells: E. coli BL21(DE3)
T2 sequence (Q96DR4 2-205 C75S): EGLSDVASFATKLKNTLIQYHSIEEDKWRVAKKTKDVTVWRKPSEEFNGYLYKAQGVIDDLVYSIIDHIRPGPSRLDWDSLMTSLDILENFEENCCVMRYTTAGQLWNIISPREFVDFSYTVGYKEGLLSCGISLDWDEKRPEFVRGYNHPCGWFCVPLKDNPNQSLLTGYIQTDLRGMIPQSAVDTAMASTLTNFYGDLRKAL
Excerpt: as §1, §2, §3, §4, §5, §6, §7, §8

Aster-B = molecular target: T3, Aster-B (Homo sapiens, UniProt Q3KR37); assay: Fluorescence polarisation (FP) competition with NBD-cholesterol, Aster-B; settings: for inhibition at 10 µM / Aster-B (FP) inhibition: single dose, Dose = 10 µM; for IC50: mean of three experiments run in technical duplicates
T3 construct: -B(364-552); GST (PreScission-cleavable) (N, cleaved yes); made in house; host or cells: E. coli OverExpress C41
T3 sequence (Q3KR37 364-552): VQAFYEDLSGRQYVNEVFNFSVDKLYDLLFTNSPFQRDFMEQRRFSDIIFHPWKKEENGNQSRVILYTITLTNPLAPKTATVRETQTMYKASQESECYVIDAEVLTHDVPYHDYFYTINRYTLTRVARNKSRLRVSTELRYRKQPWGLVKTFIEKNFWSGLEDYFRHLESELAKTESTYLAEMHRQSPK
Excerpt: as §1, §2, §3, §4, §5, §6, §7, §8

SMILES	inhibition at 10 µM (Aster-A)	ΔTm at 10 µM (STARD4)	inhibition at 10 µM (Aster-B)	IC50 (Aster-A)	IC50 (Aster-B)	Aster-A (FP) inhibition (Aster-A)	STARD4 (DSF) ΔTm (STARD4)	Aster-B (FP) inhibition (Aster-B)	Kd (STARD4)	STARD4 (DSF) ΔTmmax (STARD4)
CC12CCC(O)CC1CCc1c2[nH]c2ccc(C(F)(F)F)cc12 (stereo not drawn) [Compound 10g]	-8%	0.00665 °C	-2.5%							
CC12CCC3CC1CCC21C(=Nc2ccc(N4CCNCC4)cc21)O3 (stereo not drawn) [Compound 22]	10%	0.0199 °C	11%	26.5 µM	> 80 µM					
C[C@]12CC[C@@H]3C[C@H]1CC[C@@]21C(=Nc2ccccc21)O3 [Compound 15a]	43%	0.9 °C	13%	7.17 µM	> 80 µM					
Cc1nc2c(s1)CC[C@@H]1C[C@H](O)CC[C@]21C [Compound 8b]						-1%	0.0902 °C	7.5%		
C[C@@]12CC[C@H]3C[C@@H]1CC[C@]21C(=Nc2ccc(Br)cc21)O3 [(−)-15b]	80%	0.324 °C	14%	4.14 µM	> 80 µM				6.04 µM	3.6 °C
CC12CCC3CC1CCC21C(=Nc2ccc(Br)cc21)O3 (single isomer, unassigned; (+)) [(+)-15b]	2%	0.0899 °C	3.33%	35 µM	> 80 µM				7.89 µM	1.4 °C
COc1ccc2c(c1)[C@@]13CC[C@@H]4C[C@@H](CC[C@@]41C)OC3=N2 [Compound 15f]	51%	2.1 °C	23%	5.06 µM	> 80 µM					
C[C@]12CC[C@@H](O)C[C@H]1CCC[C@]21NC(=O)c2ccccc2N1 [Compound 5a]	0%	-0.124 °C	10%			-2%	-0.0769 °C	7%		
C[C@]12CC[C@@H](O)C[C@H]1CCc1nc3cc(Cl)c(Cl)cc3nc12 [Compound 7d]						1%	-0.111 °C	11%		
CC12CCC3CC1CCC21C(=Nc2ccc(Cl)cc21)O3 (stereo not drawn) [Compound 15c]	50%	1.5 °C	12%	4.59 µM	> 80 µM					
COc1ccc2c(c1)C(=O)N[C@]1(CCC[C@@H]3C[C@H](O)CC[C@@]31C)N2 [Compound 5c]		-0.0676 °C	12%			-1%	-0.0518 °C	10%		
Cc1c2c(nc3ccccc13)[C@@]1(C)CC[C@@H](O)C[C@H]1CC2 [Compound 2a]	1%	-0.141 °C	14%							
C[C@]12CC[C@@H](O)C[C@H]1CCc1nc3cc(F)c(F)cc3nc12 [Compound 7c]						-1%	0.0575 °C	4%		
COc1ccc2c(c1)C(=O)CC[C@@H]1C[C@H](O)CC[C@]1(C)C(=O)N2 [Compound 11d]	-1%	-0.0249 °C	4%							
Cc1cc(C)c2c(c1)N=C1[C@@]2(O)CC[C@@H]2C[C@H](O)CC[C@]12C [Compound 14c]	2%	-0.0123 °C	17%							
Cc1ccc2[nH]c3c(c(=O)c2c1)C[C@@H]1C[C@H](O)CC[C@]31C [Compound 12]	-1%	-0.0238 °C	11%							
CC12CCC3CC1CCC21C(=Nc2ccc(NCc4ccccc4)cc21)O3 (stereo not drawn) [Compound 19b]	4%	3.7 °C	9%	13.4 µM	> 80 µM				3.48 µM	7.3 °C
COc1ccc2[nH]c3c(c2c1)CC[C@@H]1C[C@H](O)CC[C@]31C [Compound 10f]	0%	0.0284 °C	13%							
C[C@]12CC[C@@H](O)C[C@H]1CCC[C@]21Nc2ccccc2-n2cccc21 [Compound 4]	-9%	0.6 °C	-0.833%			-8%	0.7 °C	-1.67%		
CCCCN(C)c1ccc2c(c1)[C@@]13CC[C@@H]4C[C@@H](CC[C@@]41C)OC3=N2 [Compound 19d]	60%	3.9 °C	16%	3.89 µM	> 80 µM				4.53 µM	5.2 °C
Cc1ccc2c(c1)[C@@]13CC[C@@H]4C[C@@H](CC[C@@]41C)OC3=N2 [Compound 15e]	45%	2.1 °C	27%	6.03 µM	> 80 µM				6.18 µM	2.4 °C
C[C@]12CC[C@@H](O)C[C@H]1CCc1c2nc2ccccc2c1-c1ccc(F)cc1 [Compound 2d]	-6%	-0.177 °C	7.5%							

From publication PMC11758220, “Identification of a Privileged Scaffold for Inhibition of Sterol Transport Proteins through the Synthesis and Ring Distortion of Diverse, Pseudo-Natural Products” (ACS Central Science, 2025)
